In patent US11040027B2, “Protein kinase inhibitors for promoting liver regeneration or reducing or preventing hepatocyte death” (HEPAREGENIX GMBH, priority 2017, dated 2021):

Legend:
MKK4 active = target: T1, MKK4 active (Homo sapiens, UniProt P45985); assay: Radiometric protein kinase assay, MKK4 active; type: biochemical; conditions: substrate JNK1 KRKR, ATP 0.2 μM, read-out: MKK4 (potency derived from IC50-values)
T1 construct: purchased ProQinase 0948-0000-1
T1 sequence (P45985 1-399): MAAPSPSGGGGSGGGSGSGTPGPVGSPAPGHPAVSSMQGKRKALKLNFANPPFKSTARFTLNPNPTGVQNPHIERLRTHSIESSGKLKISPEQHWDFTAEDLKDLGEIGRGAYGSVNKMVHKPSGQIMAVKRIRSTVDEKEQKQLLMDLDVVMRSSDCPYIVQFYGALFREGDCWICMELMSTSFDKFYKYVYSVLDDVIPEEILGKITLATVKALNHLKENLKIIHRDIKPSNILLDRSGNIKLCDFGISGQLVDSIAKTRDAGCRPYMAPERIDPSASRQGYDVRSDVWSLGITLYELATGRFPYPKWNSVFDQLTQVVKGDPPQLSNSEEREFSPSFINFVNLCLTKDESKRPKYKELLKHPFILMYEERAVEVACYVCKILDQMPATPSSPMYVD
Description: (§1) A radiometric protein kinase assay was used for measuring the kinase activity of the respective protein kinases. All kinase assays were performed in 96-well polypropylene plates. After the reactions were stopped, the assay mixtures were transferred to 96-well MSFC filter-plates (Millipore). The reaction mix was passed through the filter membrane by aspiration, the membrane was washed 3 times with 150 mM H3PO4, once with ethanol, dried and liquid scintillation cocktail was added. Radioactivity was determined by counting of the samples in a Microbeta multiwell scintillation counter (Wallac).
(§2) b) Single Kinases • 20 μl standard assay buffer • 5 μl compound in 10% DMSO • 20 μl enzyme-substrate mix • 10 μl of substrate solution
(§3) The reaction cocktails were incubated at 30° C. for 30 minutes.

MEKK2 = target: T2, MEKK2 (Homo sapiens, UniProt Q9Y2U5); assay: Radiometric protein kinase assay, MEKK2; type: biochemical; conditions: substrate Casein, ATP 0.2 μM; read-out: MEKK2 (potency derived from IC50-values)
T2 construct: purchased ProQinase 0583-0000-1
T2 sequence (Q9Y2U5 1-619): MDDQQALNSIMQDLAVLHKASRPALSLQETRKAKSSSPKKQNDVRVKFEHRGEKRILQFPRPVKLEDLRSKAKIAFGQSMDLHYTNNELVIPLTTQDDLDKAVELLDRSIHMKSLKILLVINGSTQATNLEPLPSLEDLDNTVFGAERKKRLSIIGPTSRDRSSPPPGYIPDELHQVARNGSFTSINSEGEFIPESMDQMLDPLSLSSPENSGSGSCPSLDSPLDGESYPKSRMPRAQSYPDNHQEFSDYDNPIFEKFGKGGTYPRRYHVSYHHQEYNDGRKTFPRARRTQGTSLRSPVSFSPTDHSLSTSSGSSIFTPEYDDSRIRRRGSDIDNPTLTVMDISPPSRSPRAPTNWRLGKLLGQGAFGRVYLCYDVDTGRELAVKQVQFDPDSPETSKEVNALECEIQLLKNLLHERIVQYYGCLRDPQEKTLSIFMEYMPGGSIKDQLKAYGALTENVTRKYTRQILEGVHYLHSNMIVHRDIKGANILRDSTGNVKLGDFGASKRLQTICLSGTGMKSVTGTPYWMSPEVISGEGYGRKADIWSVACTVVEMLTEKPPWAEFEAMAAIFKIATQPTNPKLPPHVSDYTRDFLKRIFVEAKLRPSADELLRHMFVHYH
Description: as §1, §2, §3

MKK4 = target: T3, MKK4 (Homo sapiens, UniProt P45985); assay: KINOMEscan competition binding assay, MKK4; conditions: read-out: Potency MKK4 (derived from % of control values, PoC)
T3 sequence (P45985 84-399): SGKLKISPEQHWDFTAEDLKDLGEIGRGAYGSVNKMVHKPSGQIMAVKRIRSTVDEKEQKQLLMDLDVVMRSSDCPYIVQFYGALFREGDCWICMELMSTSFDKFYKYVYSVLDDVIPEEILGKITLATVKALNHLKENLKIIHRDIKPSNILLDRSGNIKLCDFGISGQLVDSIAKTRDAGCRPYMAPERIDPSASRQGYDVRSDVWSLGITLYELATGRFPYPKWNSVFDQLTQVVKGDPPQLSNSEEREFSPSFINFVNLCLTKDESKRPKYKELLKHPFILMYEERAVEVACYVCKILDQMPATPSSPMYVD
Description: (§4) For investigation of the affinity to MKK4, MKK7 and JNK1, the kinases were produced in HEK-293 cells and subsequently tagged with DNA for qPCR detection. […] The liganded beads were blocked with excess biotin and washed with blocking buffer (SEABLOCK™ (Pierce), 1% BSA, 0.05% TWEEN®20, 1 mM DTT) to remove unbound ligand and to reduce nonspecific binding. […] All reactions were performed in polystyrene 96-well plates in a final volume of 0.135 mL. […] The kinase concentration in the eluates was measured by qPCR.

JNK1 = JNK1 (Homo sapiens, UniProt P45983); assay: KINOMEscan competition binding assay, selectivity JNK1 versus MKK4; conditions: ratio of percent of control
Description: as §4

BRaf = BRaf (Homo sapiens, UniProt P15056); assay: KINOMEscan competition binding assay, selectivity BRaf versus MKK4; conditions: Test conc. 0.1 μM; ratio of percent of control; N/E* per footnote
Description: The assay was performed by combining three components: DNA-tagged kinase; immobilized ligand; and a test compound. The ability of the test compound to compete with the immobilized ligand was measured via quantitative PCR of the DNA tag. The technology is described in detail in Fabian, M. A. et al. A small molecule-kinase interaction map for clinical kinase inhibitors. Nat. […] Nat.
The test compounds were provided as 10 mM stock solutions. The test solutions at indicated final concentrations were prepared at DiscoverX.

MKK7 = target: T4, MKK7 (Homo sapiens, UniProt O14733); assay: KINOMEscan competition binding assay, selectivity MKK7 versus MKK4; conditions: Test conc. 0.1 μM; ratio of percent of control; N/E* per footnote
T4 sequence (O14733 1-419): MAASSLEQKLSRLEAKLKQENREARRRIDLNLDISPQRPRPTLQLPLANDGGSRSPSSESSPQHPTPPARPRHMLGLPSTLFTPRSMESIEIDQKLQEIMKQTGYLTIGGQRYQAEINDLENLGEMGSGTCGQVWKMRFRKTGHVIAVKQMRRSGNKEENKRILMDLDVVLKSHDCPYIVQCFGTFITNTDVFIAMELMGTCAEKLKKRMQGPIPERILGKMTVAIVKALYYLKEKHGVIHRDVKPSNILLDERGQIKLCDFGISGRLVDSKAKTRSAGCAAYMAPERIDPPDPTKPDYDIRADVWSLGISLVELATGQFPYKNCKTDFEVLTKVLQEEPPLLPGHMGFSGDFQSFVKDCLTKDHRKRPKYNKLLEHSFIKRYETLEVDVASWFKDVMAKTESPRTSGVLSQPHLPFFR

[1] = Test conc 0.1 μM, N/E* = PoC for JNK1 = 100

Chain of BRaf (P15056 whole entry): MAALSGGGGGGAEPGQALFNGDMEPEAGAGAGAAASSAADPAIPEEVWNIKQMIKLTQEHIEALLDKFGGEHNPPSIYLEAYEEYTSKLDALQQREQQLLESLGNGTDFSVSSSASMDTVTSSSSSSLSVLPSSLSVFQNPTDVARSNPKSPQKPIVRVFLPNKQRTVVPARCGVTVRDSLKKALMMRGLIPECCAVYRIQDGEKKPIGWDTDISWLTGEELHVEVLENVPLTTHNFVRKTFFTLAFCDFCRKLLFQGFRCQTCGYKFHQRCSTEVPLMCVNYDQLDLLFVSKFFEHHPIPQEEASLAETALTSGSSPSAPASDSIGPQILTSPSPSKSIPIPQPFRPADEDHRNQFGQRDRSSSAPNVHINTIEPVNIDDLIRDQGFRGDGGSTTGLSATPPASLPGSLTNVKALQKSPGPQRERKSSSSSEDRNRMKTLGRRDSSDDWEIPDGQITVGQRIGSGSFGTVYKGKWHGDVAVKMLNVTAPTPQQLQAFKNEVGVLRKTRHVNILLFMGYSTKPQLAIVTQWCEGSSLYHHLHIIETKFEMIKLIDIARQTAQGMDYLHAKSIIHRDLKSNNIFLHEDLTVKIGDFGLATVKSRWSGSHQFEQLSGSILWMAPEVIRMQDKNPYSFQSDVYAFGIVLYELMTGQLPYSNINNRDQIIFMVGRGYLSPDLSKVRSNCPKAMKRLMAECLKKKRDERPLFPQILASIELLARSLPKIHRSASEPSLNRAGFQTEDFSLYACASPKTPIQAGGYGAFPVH
Chain of JNK1 (P45983 1-384 isoform P45983-2): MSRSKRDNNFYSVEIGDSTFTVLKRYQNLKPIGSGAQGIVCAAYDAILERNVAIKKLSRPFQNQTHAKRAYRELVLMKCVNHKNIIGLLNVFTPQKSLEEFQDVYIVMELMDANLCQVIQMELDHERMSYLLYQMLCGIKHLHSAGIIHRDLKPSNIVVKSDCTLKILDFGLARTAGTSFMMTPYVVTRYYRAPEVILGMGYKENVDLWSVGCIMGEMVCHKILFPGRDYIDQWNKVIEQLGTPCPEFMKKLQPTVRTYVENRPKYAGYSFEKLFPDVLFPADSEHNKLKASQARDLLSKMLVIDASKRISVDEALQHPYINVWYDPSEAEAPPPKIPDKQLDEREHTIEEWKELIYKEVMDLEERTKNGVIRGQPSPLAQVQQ

Structure (SMILES)	IC50 (MKK4 active) [nM]	IC50 (MEKK2) [nM]	remaining binding at 0.1 µM (MKK4) [%]	Selectivity JNK1/MKK4 (JNK1; Test conc 10 μM)	Selectivity BRaf/MKK4 (BRaf)	Selectivity MKK7/MKK4 (MKK7)	Selectivity JNK1/MKK4 (JNK1; [1])
CCCS(=O)(=O)Nc1ccc(F)c(C(=O)c2c[nH]c3ncc(-c4ccc(F)cc4C)cc23)c1F [Example 12, N-(2,4-Difluoro-3-(5-(4-fluoro-2-methylphenyl)-1H-pyrrolo[2,3-b]pyridine-3-carbonyl)phenyl)propane-1-sulfonamide]	500 to 1000	> 10000	10 to 30	>100	7.8	10	–
CCCS(=O)(=O)Nc1ccc(F)c(C(=O)c2c[nH]c3ncc(-c4ccccc4Cl)cc23)c1F [Example 13, N-(3-(5-(2-Chlorophenyl)-1H-pyrrolo[2,3-b]pyridine-3-carbonyl)-2,4-difluorophenyl)propane-1-sulfonamide]	< 500	1000 to 10000	10 to 30	>100	10.5	10	–
CS(=O)(=O)Nc1cccc(C(=O)c2c[nH]c3ncc(-c4ccc5c(c4)OCCO5)cc23)c1F [Example 36, N-(3-(5-(2,3-Dihydrobenzo[b][1,4]dioxin-6-yl)-1H-pyrrolo[2,3-b]pyridine-3-carbonyl)-2-fluorophenyl)methanesulfonamide]	> 10000	> 10000	< 10	–	18.8	19.6	N/E* (PoC for JNK1 = 100)
Cc1cc(F)ccc1-c1cnc2[nH]cc(C(=O)c3cccc(NS(C)(=O)=O)c3F)c2c1 [Example 37, N-(2-Fluoro-3-(5-(4-fluoro-2-methylphenyl)-1H-pyrrolo[2,3-b]pyridine-3-carbonyl)phenyl)methanesulfonamide]	500 to 1000	> 10000	< 10	–	13.2	14.1	N/E* (PoC for JNK1 = 100)
CS(=O)(=O)Nc1cccc(C(=O)c2c[nH]c3ncc(-c4ccccc4Cl)cc23)c1F [Example 38, N-(3-(5-(2-Chlorophenyl)-1H-pyrrolo[2,3-b]pyridine-3-carbonyl)-2-fluorophenyl) methanesulfonamide]	< 500	1000 to 10000	10 to 30	–	5.3	5.3	N/E* (PoC for JNK1 = 100)
CCCS(=O)(=O)Nc1ccc(F)c(C(=O)c2c[nH]c3ncc(-c4ccc(F)cc4Cl)cc23)c1F [Example 40, N-(3-(5-(2-Chloro-4-fluorophenyl)-1H-pyrrolo[2,3-b]pyridine-3-carbonyl)-2,4-difluorophenyl)propane-1-sulfonamide]	< 500	1000 to 10000	10 to 30	–	4.7	5.6	N/E* (PoC for JNK1 = 100)
CCCS(=O)(=O)Nc1ccc(F)c(C(=O)c2c[nH]c3ncc(-c4cc5c(cc4Cl)OCCO5)cc23)c1F [Example 44, N-(3-(5-(7-Chloro-2,3-dihydrobenzo[b][1,4]dioxin-6-yl)-1H-pyrrolo[2,3-b]pyridine-3-carbonyl)-2,4-difluorophenyl)propane-1-sulfonamide]	< 500	1000 to 10000	< 10	–	14	18	N/E* (PoC for JNK1 = 100)
CC(C)c1ccc(-c2cnc3[nH]cc(C(=O)c4cccc(NS(C)(=O)=O)c4F)c3c2)cc1 [Example 45]	1000 to 10000	> 10000	> 30	–	N/E* (PoC for JNK1 = 100)	N/E* (PoC for JNK1 = 100)	N/E* (PoC for JNK1 = 100)
COc1ccc(-c2cnc3[nH]cc(C(=O)c4cccc(NS(C)(=O)=O)c4F)c3c2)c(Cl)c1 [Example 46]	< 500	1000 to 10000	< 10	–	N/E* (PoC for JNK1 = 100)	10	N/E* (PoC for JNK1 = 100)
CS(=O)(=O)Nc1cccc(C(=O)c2c[nH]c3ncc(-c4cc5c(cc4Cl)OCO5)cc23)c1F [Example 47]	< 500	1000 to 10000	< 10	–	N/E* (PoC for JNK1 = 100)	9.7	10
CS(=O)(=O)Nc1cccc(C(=O)c2c[nH]c3ncc(-c4cc5c(cc4Cl)OCCO5)cc23)c1F [Example 48]	1000 to 10000	> 10000	10 to 30	–	N/E* (PoC for JNK1 = 100)	8.7	8.4
CCCCS(=O)(=O)Nc1cccc(C(=O)c2c[nH]c3ncc(-c4ccc(Cl)cc4)cc23)c1F [Example 50]	< 500	> 10000	10 to 30	–	7.0	N/E* (PoC for JNK1 = 100)	N/E* (PoC for JNK1 = 100)
CCCCS(=O)(=O)Nc1cccc(C(=O)c2c[nH]c3ncc(-c4ccc(OC)cc4Cl)cc23)c1F [Example 52]	< 500	> 10000	< 10	–	N/E* (PoC for JNK1 = 100)	N/E* (PoC for JNK1 = 100)	17
CCCCS(=O)(=O)Nc1cccc(C(=O)c2c[nH]c3ncc(-c4ccc5c(c4)OCO5)cc23)c1F [Example 53]	< 500	1000 to 10000	< 10	–	56	N/E* (PoC for JNK1 = 100)	N/E* (PoC for JNK1 = 100)
